# Assay results as given in patent US20060134217A1, “Leukotriene and integrin inhibitor combination and treatment method” (priority 2004, published 2006).
# Marks after values point to notes of the source that are not given here.
# What was measured:
# α4/β7 to MadCAM-1 = target: T1, α4/β7 to MadCAM-1 (Homo sapiens, UniProt P13612+P26010); test: Inhibition of α4/β7 binding to MadCAM-1
# T1 sequence (P13612 34-1032): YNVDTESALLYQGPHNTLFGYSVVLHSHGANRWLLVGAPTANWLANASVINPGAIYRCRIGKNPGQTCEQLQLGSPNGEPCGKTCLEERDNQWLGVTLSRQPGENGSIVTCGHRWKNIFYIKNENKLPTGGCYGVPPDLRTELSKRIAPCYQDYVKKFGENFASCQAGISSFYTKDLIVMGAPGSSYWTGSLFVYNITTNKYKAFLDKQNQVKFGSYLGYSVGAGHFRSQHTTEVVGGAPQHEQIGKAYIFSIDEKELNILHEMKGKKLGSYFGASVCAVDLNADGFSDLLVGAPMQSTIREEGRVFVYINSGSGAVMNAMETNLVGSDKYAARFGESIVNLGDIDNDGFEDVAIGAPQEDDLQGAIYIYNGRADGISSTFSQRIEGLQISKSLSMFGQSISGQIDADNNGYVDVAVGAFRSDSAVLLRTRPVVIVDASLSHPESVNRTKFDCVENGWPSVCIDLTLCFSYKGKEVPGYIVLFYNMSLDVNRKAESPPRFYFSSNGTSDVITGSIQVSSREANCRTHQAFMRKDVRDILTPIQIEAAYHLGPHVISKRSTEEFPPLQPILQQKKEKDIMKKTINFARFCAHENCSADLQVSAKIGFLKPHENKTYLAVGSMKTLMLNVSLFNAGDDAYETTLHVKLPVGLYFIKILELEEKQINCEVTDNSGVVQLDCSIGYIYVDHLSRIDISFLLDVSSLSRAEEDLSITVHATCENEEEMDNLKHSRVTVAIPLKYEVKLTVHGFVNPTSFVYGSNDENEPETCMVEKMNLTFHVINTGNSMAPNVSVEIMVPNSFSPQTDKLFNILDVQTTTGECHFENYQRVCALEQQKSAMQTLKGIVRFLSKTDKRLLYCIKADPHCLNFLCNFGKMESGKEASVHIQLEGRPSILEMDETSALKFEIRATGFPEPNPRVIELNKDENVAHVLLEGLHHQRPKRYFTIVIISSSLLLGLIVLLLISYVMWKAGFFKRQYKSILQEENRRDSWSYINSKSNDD
# T1 sequence (P26010 20-798): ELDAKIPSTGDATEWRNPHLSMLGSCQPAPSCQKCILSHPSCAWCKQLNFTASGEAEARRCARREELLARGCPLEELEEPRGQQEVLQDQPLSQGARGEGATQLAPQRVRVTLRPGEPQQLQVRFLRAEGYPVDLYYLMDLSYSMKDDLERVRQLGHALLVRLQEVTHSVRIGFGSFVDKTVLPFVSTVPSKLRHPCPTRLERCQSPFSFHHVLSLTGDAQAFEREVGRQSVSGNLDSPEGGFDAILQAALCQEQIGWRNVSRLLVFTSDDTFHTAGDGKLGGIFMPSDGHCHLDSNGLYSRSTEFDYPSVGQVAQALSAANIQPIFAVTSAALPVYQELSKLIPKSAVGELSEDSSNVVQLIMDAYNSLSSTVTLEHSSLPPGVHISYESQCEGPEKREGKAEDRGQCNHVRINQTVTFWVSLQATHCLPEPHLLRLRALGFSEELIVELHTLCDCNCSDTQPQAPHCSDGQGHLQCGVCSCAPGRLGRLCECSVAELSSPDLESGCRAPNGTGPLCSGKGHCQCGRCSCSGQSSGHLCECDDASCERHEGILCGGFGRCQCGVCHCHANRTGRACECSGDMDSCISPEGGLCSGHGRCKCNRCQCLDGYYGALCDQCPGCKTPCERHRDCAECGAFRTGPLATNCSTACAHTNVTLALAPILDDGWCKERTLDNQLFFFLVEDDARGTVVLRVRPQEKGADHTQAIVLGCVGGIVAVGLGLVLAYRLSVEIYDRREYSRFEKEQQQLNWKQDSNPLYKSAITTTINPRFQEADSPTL
# From the text: (§1) R411 inhibits the binding of α4/β1 to vascular cell adhesion molecule (VCAM-1) and α4/β7 to MadCAM-1 by […]. R411 is disclosed in U.S. Pat. No. 6,229,011, which disclosure is incorporated by reference herein.
# key inflammatory cells = test: Migration of inflammatory cells from blood into lungs; conditions: in vivo
# [1] = test system: mild/moderate asthmatics not treated with inhaled corticosteroids; test: ARES study: R411 monotherapy, 12 week treatment period; type: in vivo, human; conditions: for % Asthma exacerbation / Asthma control Questionnaire (Total Score), change from baseline / Morning asthma symptoms, change from baseline / Nocturnal awakenings (scores), change from baseline / Rescue β 2-agonist use (puffs/d), change from baseline: 12 weeks, ITT population
# Method: The ARES study illustrated in FIG. 4 was designed to evaluate the safety and efficacy of monotherapy R411 over a 12 week treatment period in 480 mild/moderate asthmatics not treated with inhaled corticosteroids. Patients were randomized to one of four cohorts: 50, 200, 600 mg QD R411, or placebo (n=120/group). The primary endpoint in the study was change in FEV1 from baseline, and secondary endpoints included PEFR, asthma exacerbations, β2-agonist use, asthma control questionnaire, asthma symptom scores, and nocturnal awakenings.
# ARES study evaluated the safety and efficacy of monotherapy with R411 over a 12-week treatment period in 479 mild/moderate asthmatics not treated with inhaled corticosteroids. Patients were randomized to one of four cohorts: 50, 200, 600 mg once daily R411, or placebo.
# [2] = test system: α4/β1 and α4/β7 integrins; test: Integrin selectivity
# α4 = target: T2, α4 (Homo sapiens, UniProt P13612); test: In vitro binding to α4 integrin
# T2 sequence (P13612 34-1032): T1 sequence (P13612 34-1032)
# atopic primate = test: Airway inflammation in the atopic primate, oral R411; type: in vivo; conditions: oral administration, FIG. 6
# [3] = From the text: The pharmaceutical dosage forms may also be formulated to provide a chronobiological synergy of the two compounds.
# [4] = target: α4/β1 to vascular cell adhesion molecule (VCAM-1) (Homo sapiens, UniProt P05556+P13612); test: Inhibition of α4/β1 binding to VCAM-1
# From the text: as §1
# [5] = test system: persistent asthmatics on low to medium inhaled corticosteroids; test: Phase II add-on of R411 to inhaled corticosteroids (MARS study); type: in vivo, human; conditions: added to moderate dose inhaled corticosteroids, subpopulation with less well controlled asthma
# From the text: As set out above, a second component in the solid pharmaceutical dosage form comprises a therapeutically effective amount of R411 (N-(2-chloro-6-methylbenzoyl)-4-[(2,6-dichlorobenzoyl)amino]-L-phenylalanine-2-(diethylamino)ethyl ester), or a pharmaceutically acceptable salt thereof. […] The MARS study illustrated in FIG. 3 was designed to evaluate the safety and efficacy of R411 over a 12 week treatment period in 350 persistent asthmatics being treated with a stable dose of low to medium inhaled corticosteroids and inhaled short acting […]. Patients were randomized to one of five cohorts: 50, 200, 600 mg once daily (QD) or 300 mg twice daily (BID) R411, or placebo (n=70/group). After a 2-week placebo run-in period and subsequent 2-week add-on period (R411 or placebo), morning inhaled corticosteroids were removed. Two weeks later, evening inhaled corticosteroids were removed, and patients remained in the treatment period for an additional 8 weeks. The primary endpoint in the study was the percentage change in FEV1 from baseline, and secondary endpoint included PEFR, asthma exacerbations, β2-agonist use, asthma control questionnaire, asthma symptom scores, nocturnal awakenings, FEF25-75 and rate of asthma treatment failures.
# [6] = test system: mild and moderate asthmatics; conditions: cited from earlier work
# [7] = test system: stable asthmatic adults maintained on inhaled corticosteroids; conditions: cited from earlier work
# [8] = 50, 200, 600 mg once daily vs placebo
# α4/β1 to vascular cell adhesion molecule (VCAM-1), sequence (P05556 21-798, one chain of several): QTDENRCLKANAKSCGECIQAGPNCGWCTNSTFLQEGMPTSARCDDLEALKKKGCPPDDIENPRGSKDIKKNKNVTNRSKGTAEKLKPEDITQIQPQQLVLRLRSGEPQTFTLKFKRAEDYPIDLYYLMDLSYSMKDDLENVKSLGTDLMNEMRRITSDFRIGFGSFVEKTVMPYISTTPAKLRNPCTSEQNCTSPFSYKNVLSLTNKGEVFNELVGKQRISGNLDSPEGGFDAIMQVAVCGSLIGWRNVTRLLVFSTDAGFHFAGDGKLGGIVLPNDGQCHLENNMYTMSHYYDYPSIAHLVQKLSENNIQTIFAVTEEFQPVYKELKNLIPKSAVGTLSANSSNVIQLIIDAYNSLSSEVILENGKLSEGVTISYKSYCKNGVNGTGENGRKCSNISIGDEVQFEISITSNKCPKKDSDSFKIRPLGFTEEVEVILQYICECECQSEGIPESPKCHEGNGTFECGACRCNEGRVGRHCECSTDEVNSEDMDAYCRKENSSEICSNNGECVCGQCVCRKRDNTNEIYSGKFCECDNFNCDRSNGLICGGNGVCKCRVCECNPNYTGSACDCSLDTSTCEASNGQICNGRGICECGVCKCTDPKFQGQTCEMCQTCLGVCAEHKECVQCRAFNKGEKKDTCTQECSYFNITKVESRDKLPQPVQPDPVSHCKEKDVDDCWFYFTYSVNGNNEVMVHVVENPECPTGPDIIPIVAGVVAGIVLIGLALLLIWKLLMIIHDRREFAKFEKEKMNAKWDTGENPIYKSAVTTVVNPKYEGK
compound,measurement,setting,value
"CCN(CC)CCOC(=O)[C@H](Cc1ccc(NC(=O)c2c(Cl)cccc2Cl)cc1)NC(=O)c1c(C)cccc1Cl [R411, N-(2-Chloro-6-methylbenzoyl)-4-[(2,6-dichlorobenzoyl)amino]-L-phenylalanine-2-(diethylamino)ethyl ester]",inhibition of binding of α4/β7 to MadCAM-1,α4/β7 to MadCAM-1,inhibits
same,migration of key inflammatory cells from the blood into the lungs,key inflammatory cells,block the migration
same,% Asthma exacerbation,[1]; 200 mg once daily,25.6%
same,"Asthma control Questionnaire (Total Score), change from baseline",[1]; 200 mg once daily,−0.29 [2.08]
same,"Morning asthma symptoms, change from baseline",[1]; 200 mg once daily,−0.34* [1.55]
same,"Nocturnal awakenings (scores), change from baseline",[1]; 200 mg once daily,−0.15*/[0.61] scores
same,"Rescue β 2-agonist use (puffs/d), change from baseline",[1]; 200 mg once daily,−0.36/[3.04] puffs/d
same,% Asthma exacerbation,[1]; 600 mg once daily,26.10%
same,"Asthma control Questionnaire (Total Score), change from baseline",[1]; 600 mg once daily,−0.23 [2.00]
same,"Morning asthma symptoms, change from baseline",[1]; 600 mg once daily,−0.33* [1.57]
same,"Nocturnal awakenings (scores), change from baseline",[1]; 600 mg once daily,−0.12*/[0.58] scores
same,"Rescue β 2-agonist use (puffs/d), change from baseline",[1]; 600 mg once daily,−0.41*/[3.11] puffs/d
same,decrease in daytime asthma and nocturnal symptom score,[1]; [8],Statistically significant improvements
same,reducing rescue albuterol use,[1]; [8],Statistically significant improvements
same,Asthma Control Questionnaire Scores and Asthma Quality-of-Life,[1]; compared to placebo,Improvement
same,small airway flow rates as measured by FEF25-75,"[1]; monotherapy, FIG. 4",significant effect
same,reduction in asthma exacerbations,[1]; two highest doses of 200 and 600 mg,26%
same,integrin selectivity,[2],effective against both α4/β1 and α4/β7 integrins
same,binding affinity,α4; activated α4,high affinity
same,dissociation,α4; activated α4,slow dissociation
same,dissociation,α4; receptor not activated,more rapid
same,in vitro binding affinity,α4; receptor not activated,lower
same,airway inflammation,atopic primate,attenuates airway inflammation
same,acid/base character,[3],weak base
same,solubility along the gastrointestinal tract,[3],higher solubility in the upper part of the gastrointestinal tract
same,inhibition of binding of α4/β1 to VCAM-1,[4],inhibits
same,large airway flow rates as measured by FEV1,[5]; FIG. 2,additive effect
same,small airway flow rates measured by FEF25-75,[5]; FIG. 3,additive effect
"CC(C)(O)c1ccccc1CC[C@@H](SCC1(CC(=O)[O-])CC1)c1cccc(/C=C/c2ccc3ccc(Cl)cc3n2)c1.[Na+] [montelukast, [R-(E)]-1-[[[1-[3-[2-(7-chloro-2-quinolinyl)ethenyl]phenyl]-3-[2-(1-hydroxy-1-methylethyl)phenyl]propyl]thio]methyl]cyclopropaneacetic acid, monosodium salt]","reduction of ""as-needed"" (beta)-agonist use from baseline","[6]; adult patients, placebo 4.6%",26.1%
same,reduction of nocturnal awakenings from baseline,"[6]; patients with nocturnal awakenings of at least 2 nights per week, combined analysis, placebo 15%",34%
same,reduction in mean inhaled corticosteroid dose,"[7]; 12-week active treatment period, placebo 30%",47%
same,patients successfully tapered off inhaled corticosteroids,"[7]; at conclusion of study, placebo 29%, p=NS",Approximately 40%
